What was measured:
[1] = (§1) MMV: Anti-babesial activity assay. Parasite pRBCs at 1% parasitemia were cultivated in 100 ul with 96-well plates at 2.5% and 5% hematocrits. The parasites were cultivated in triplicate for 4 days without replacement of the medium for each concentration of the compound.; type: functional, Babesia bovis
[2] = as §1; type: functional, Babesia bigemina
[3] = as §1; type: functional, Babesia equi
[4] = as §1; type: functional, Babesia caballi

**Q.** What does the source list for `Oc1c(CN2CCN(c3ccccc3F)CC2)cc(Br)c2cccnc12`?
**A.** IC50 [1]: 3.32 µM; IC50 [2]: 4.6 µM; IC50 [3]: 12.8 µM; IC50 [4]: 14.7 µM

**Q.** For `CN1c2ccccc2N(C)C1c1ccc2c(c1)OCO2`, which IC50 [1] is on record?
**A.** Its IC50 is 4.93 µM.

**Q.** What about the IC50 [2] of the same compound?
**A.** The IC50 was 0.1 µM.

**Q.** What about the IC50 [3] of the same compound?
**A.** Its IC50 is 10.1 µM.

**Q.** What about the IC50 [4] of the same compound?
**A.** Its IC50 is 0.36 µM.

**Q.** With `C=CCc1c(C)nc2ccccc2c1O` as the compound, how does the IC50 [1] read?
**A.** Its IC50 is 6.09 µM.

**Q.** And the IC50 [2]?
**A.** The IC50 was 3.57 µM.

**Q.** What about the IC50 [3] of the same compound?
**A.** Its IC50 is 3.61 µM.

**Q.** What about the IC50 [4] of the same compound?
**A.** The IC50 was 11.4 µM.

**Q.** For `COc1ccc(-c2cn3c(C(=O)Nc4ccccc4Cl)c(-c4ccccc4)c4c3n2CCCC4)cc1`, which IC50 [1] is on record?
**A.** The IC50 was 0.77 µM.

**Q.** What about the IC50 [2] of the same compound?
**A.** The IC50 was 21.6 µM.

**Q.** And the IC50 [3]?
**A.** Its IC50 is 1 µM.

**Q.** What about the IC50 [4] of the same compound?
**A.** Its IC50 is 12.5 µM.

**Q.** What does the source list for `Cc1cc(NC(=O)c2ccc(-c3ccccc3)cc2)no1`?
**A.** IC50 [1]: 0.24 µM; IC50 [2]: 8.54 µM; IC50 [3]: 12.4 µM; IC50 [4]: 0.076 µM

**Q.** What does the source list for `Cc1cccc(-n2ncc3c(O)nc(-n4nc(C)cc4NC(=O)c4cc5ccccc5o4)nc32)c1`?
**A.** IC50 [1]: 4.48 µM; IC50 [2]: 0.41 µM; IC50 [3]: 0.47 µM; IC50 [4]: 0.073 µM

**Q.** Which results are given for `O=C1c2ccccc2-c2nnc(-c3ccc(Br)cc3)cc21`?
**A.** IC50 [1]: 0.86 µM; IC50 [2]: 0.77 µM; IC50 [3]: 10.1 µM; IC50 [4]: 18.1 µM
